Here are results for 3 compounds from publication PMC5729930, “Bitopic fluorescent antagonists of the A2A adenosine receptor based on pyrazolo[4,3-e][1,2,4]triazolo[1,5-c]pyrimidin-5-amine functionalized congeners” (MedChemComm, 2017).

The structures appear in SMILES notation. Where “and” joins values, the source holds several entries; their conditions need not be identical. Equal values may be shown once.

One assay concerns the target T1, A3AR (Homo sapiens, UniProt P0DMS8).
T1 construct: expressed in transfected cells
T1 sequence (P0DMS8 1-318): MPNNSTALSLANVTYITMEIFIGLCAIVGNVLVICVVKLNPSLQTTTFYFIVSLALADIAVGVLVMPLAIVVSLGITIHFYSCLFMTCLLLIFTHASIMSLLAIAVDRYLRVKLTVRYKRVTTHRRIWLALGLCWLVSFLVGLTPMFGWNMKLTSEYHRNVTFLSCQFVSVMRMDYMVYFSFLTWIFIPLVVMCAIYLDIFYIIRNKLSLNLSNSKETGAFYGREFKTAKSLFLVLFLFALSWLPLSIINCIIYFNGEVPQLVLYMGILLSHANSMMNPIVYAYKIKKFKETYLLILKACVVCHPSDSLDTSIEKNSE
The assay is described as follows: Competition radioligand binding, hA3AR ([125I]I-AB-MECA). As to conditions: [125I]I-AB-MECA 0.2 nM; for inhibition at 10 µM: percent inhibition at 10 μM, read-out: % inhib, A3. Here is the method:
(§1) The affinity of the amine congeners and other antagonists was measured using standard radioligand binding assays for hA1, A2A and A3ARs (Table 1).[1],[13],[14],[22] Membranes of human embryonic kidney (HEK)293 cells expressing the AR of interest were used in the assay. Primary amine congeners 6a–6d containing spacers of 2–5 methylenes were similar in terms of hA2AAR affinity (Ki 6–9 nM), with the butylamino congener 6c displaying the highest A2AAR selectivity in the series. The affinity of this compound for the hA3AR was determined to be 6.0 μM, with only slightly higher hA1AR affinity. Homologation to 6 methylenes in compound 6e lowered A2AAR affinity. […] No dependence of the affinity on the chain length was evident when comparing AlexaFluor647 conjugates 9 and 10. […]
(§2) Radioligand binding assays: Cell membranes were prepared as reported.1
(§3) Binding assays were carried out using standard radioligands and membrane preparations from HEK-293 cells stably expressing the human (h) A1, A2A or A3ARs or mouse (m) A1, A2A or A3ARs. The radioligands used were: A1AR, [3H]8-cyclopentyl-1,3-dipropylxanthine 14; A2AAR, [3H]2; A3AR, [125I]N6-(4-amino-3-iodobenzyl)adenosine-5′-N-methyluronamide 16. The radioligand for archival A2AAR affinity data presented in Table 1 was [3H]2-[p-(2-carboxyethyl)phenyl-ethylamino]-5′-N-ethylcarboxamidoadenosine 15. Nonspecific binding was determined using 10 µM 8-[4-[[[[(2-aminoethyl)amino]carbonyl]methyl]oxy]phenyl]-1,3-dipropylxanthine 17 (A1AR and A2AAR) or 10 µM adenosine-5′-N-ethyluronamide 18 (A3AR). HEK-293 cells expressing recombinant mA1, A2A, or A3AR […]
(§4) Protein was determined as reported.2 In all the binding experiments, IC50 values and Ki values were calculated using GraphPad Prism software (San Diego, CA). Values are expressed as mean±SEM. […]
(§5) Med. Chem. Comm., 2015, 6:555-563.
(§6) 2. Bradford, M. M. A rapid and sensitive method for the quantitation of microgram quantities of protein utilizing the principle of protein -dye binding. Anal. Biochem. 1976, 72, 248-254.

The target of the next assay is T2, A2AAR (Homo sapiens, UniProt P29274).
T2 construct: expressed in transfected cells
T2 sequence (P29274 whole entry): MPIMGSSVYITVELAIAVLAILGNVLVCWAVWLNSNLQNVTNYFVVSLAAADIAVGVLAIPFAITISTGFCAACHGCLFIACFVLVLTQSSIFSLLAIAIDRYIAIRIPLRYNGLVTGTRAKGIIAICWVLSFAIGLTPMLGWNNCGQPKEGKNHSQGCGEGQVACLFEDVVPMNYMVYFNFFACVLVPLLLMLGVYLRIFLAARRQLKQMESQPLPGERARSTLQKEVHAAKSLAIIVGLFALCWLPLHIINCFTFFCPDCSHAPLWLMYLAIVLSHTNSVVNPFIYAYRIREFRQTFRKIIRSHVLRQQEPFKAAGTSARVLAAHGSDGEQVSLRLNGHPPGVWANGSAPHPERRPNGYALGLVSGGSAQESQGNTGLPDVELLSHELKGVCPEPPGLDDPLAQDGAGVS
Kind of assay: Competition radioligand binding, hA2AAR ([3H]ZM241385 or [3H]CGS21680). As to conditions: for fold weaker A2AAR affinity with respect to the parent amino derivative 6c / Ki: human A2AAR; for Ki: HEK-293 membranes, [3H]ZM241385 1.0 nM, 1 h 25 °C, mean ± SEM, read-out: Affinity, Ki, A2A. Here is the method:
(§7) The affinity of the amine congeners and other antagonists was measured using standard radioligand binding assays for hA1, A2A and A3ARs (Table 1).[1],[13],[14],[22] Membranes of human embryonic kidney (HEK)293 cells expressing the AR of interest were used in the assay. Primary amine congeners 6a–6d containing spacers of 2–5 methylenes were similar in terms of hA2AAR affinity (Ki 6–9 nM), with the butylamino congener 6c displaying the highest A2AAR selectivity in the series. The affinity of this compound for the hA3AR was determined to be 6.0 μM, with only slightly higher hA1AR affinity. Homologation to 6 methylenes in compound 6e lowered A2AAR affinity. […] No dependence of the affinity on the chain length was evident when comparing AlexaFluor647 conjugates 9 and 10.
Fig. 1 Antagonist radioligand ([^3H]2, 1.0 nM) binding inhibition curves for the hA2AAR for four antagonist fluorescent conjugates. Compound numbers: MRS7322 9, MRS7395 10, MRS7396 11 and MRS7416 12. Membranes from HEK-293 cells expressing the hA2AAR were used, and their incubation was performed for 1 h at 25 °C. Results are expressed as the mean ± SEM.
(§8) Cell culture for membrane binding assays and flow cytometry: HEK-293 cells stably expressing the A2AAR were grown in Dulbecco’s Modified Eagle’s Medium (DMEM) with 10% FBS, 100 units/ml penicillin, […] streptomycin, 2 mM L-glutamine and 0.500 mg/mL G418 Sulfate (Geneticin). […]
as §2, §3, §4, §5, §6

For the next assay, the target named is T3, A1AR (Homo sapiens, UniProt P30542).
T3 construct: expressed in transfected cells
T3 sequence (P30542 1-326): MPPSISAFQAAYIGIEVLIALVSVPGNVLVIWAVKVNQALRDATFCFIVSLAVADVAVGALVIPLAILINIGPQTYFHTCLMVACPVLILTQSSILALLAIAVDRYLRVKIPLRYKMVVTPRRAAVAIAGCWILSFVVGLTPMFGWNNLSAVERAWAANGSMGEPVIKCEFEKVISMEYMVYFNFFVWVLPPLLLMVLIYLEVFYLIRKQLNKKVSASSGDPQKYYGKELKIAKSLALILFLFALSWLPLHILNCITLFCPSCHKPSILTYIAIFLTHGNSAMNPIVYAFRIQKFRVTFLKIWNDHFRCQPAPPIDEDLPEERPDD
Kind of assay: Competition radioligand binding, hA1AR ([3H]DPCPX). To be noted: [3H]DPCPX 0.5 nM; for Ki: HEK-293 membranes, 1 h 25 °C, mean ± SEM, read-out: Affinity, Ki, A1. Here is the method: as §1, §2, §3, §4, §5, §6

The target of a further assay is T4, mA3AR (Mus musculus, UniProt Q61618).
T4 construct: expressed in transfected cells; host or cells: HEK-293
T4 sequence (Q61618 1-319): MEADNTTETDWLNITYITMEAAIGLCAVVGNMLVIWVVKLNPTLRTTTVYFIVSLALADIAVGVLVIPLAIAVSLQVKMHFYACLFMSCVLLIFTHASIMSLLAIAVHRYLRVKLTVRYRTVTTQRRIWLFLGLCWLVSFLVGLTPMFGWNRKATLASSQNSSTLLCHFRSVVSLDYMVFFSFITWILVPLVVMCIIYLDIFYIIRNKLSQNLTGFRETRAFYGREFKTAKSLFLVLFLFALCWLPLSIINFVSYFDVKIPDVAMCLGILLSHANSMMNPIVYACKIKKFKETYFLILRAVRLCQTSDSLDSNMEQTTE
The assay is described as follows: Competition radioligand binding, mA3AR. To be noted: for inhibition at 10 µM: mouse A3AR, percent inhibition at 10 μM, read-out: % inhib, A3 (m) (converted). Here is the method: as §1, §2, §3, §4, §5, §6

The next assay has as its target T5, mA2AAR (Mus musculus, UniProt Q60613).
T5 construct: expressed in transfected cells; host or cells: HEK-293
Kind of assay: Competition radioligand binding, mA2AAR. To be noted: mouse A2AAR, HEK-293 membranes, mean ± SEM; read-out: Affinity, Ki, A2A (m) (converted). Here is the method: as §7, §8, §2, §3, §4, §5, §6

T5 sequence (Q60613 whole entry): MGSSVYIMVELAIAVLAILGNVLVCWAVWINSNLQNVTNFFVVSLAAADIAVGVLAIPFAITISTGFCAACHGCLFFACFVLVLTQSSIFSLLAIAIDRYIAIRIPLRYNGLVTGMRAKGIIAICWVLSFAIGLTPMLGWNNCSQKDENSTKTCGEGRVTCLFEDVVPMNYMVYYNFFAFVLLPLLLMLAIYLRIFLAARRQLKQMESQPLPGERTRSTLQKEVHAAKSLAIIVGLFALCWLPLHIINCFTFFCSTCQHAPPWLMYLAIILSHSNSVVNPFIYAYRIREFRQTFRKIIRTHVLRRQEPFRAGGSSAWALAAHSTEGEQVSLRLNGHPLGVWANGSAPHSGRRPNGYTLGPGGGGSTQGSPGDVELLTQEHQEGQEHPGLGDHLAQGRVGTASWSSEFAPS

By Ki is commonly meant the equilibrium dissociation constant of an inhibitor or competing ligand from its target. `Nc1nc2c(cnn2CCCc2ccc(OCC(=O)NCCCCNC(=O)CCCCCNC(=O)COc3ccc(/C=C/C4=[N+]5C(=Cc6ccc(-c7cccs7)n6[B-]5(F)F)C=C4)cc3)cc2)c2nc(-c3ccco3)nn12` [compound 11]: the inhibition at 10 µM at A3AR was 33%; at A1AR (percent inhibition at 10 μM), 40%; at mA3AR it was 2%. Besides, the “fold weaker A2AAR affinity with respect to the parent amino derivative 6c” value on A2AAR worked out at 4 fold. Further, the Ki at A2AAR was 24.6 ± 17.6 nM; at mA2AAR, 2.1 nM and 2.09 nM.
Regarding `CCN(CC)CC.CCN(CC)CC.N=c1ccc2c(-c3ccc(C(=O)NCCCCNC(=O)COc4ccc(CCCn5ncc6c5nc(N)n5nc(-c7ccco7)nc65)cc4)cc3C(=O)O)c3ccc(N)c(S(=O)(=O)O)c3oc-2c1S(=O)(=O)O` [compound 12], the inhibition at 10 µM on A3AR was 32%; on mA3AR it was 5%. Further, the “fold weaker A2AAR affinity with respect to the parent amino derivative 6c” value at A2AAR was found to be 4 fold. Also, the Ki at A2AAR was 30.3 ± 4.9 nM; at A1AR, 1680 ± 470 nM; at mA2AAR it was 585 nM.
For the compound `N.Nc1nc2c(cnn2CCCc2ccc(OCc3ccc(S(=O)(=O)O)cc3)cc2)c2nc(-c3ccco3)nn12` [compound 13], the Ki at A3AR (HEK-293 membranes, 1 h 25 °C, mean ± SEM, read-out: Affinity, Ki, A3) was 2660 ± 1250 nM; on A2AAR it was 6.2 nM; at A1AR it was 4190 ± 750 nM; on mA2AAR it was 64.1 nM. The “A2AAR selectivity compared to the hA1AR” value at A2AAR (hA2AAR vs hA1AR binding) is recorded as 671 fold. Also, at A2AAR (hA2AAR vs hA3AR binding), the “A2AAR selectivity compared to the hA3AR” value was determined as 426 fold. The inhibition at 10 µM at mA3AR was 4%. Besides, the “binding to the mA3AR” value at mA3AR (result in words) was “insignificant”.
